From patent US9834542B2, “LXR modulators” (BRISTOL-MYERS SQUIBB COMPANY, priority 2013, dated 2017) come the findings set out here.

This experiment deals with T1, LXRβ (Homo sapiens, UniProt P55055).
T1 construct: Co-transfection expression plasmids, comprising full-length LXRα (pCMX-h LXRα[…] or LXRβ (pCMX-hLXRβ)); expressed in transfected cells; host or cells: CV-1 African Green Monkey Kidney Cells
T1 sequence (P55055 1-460): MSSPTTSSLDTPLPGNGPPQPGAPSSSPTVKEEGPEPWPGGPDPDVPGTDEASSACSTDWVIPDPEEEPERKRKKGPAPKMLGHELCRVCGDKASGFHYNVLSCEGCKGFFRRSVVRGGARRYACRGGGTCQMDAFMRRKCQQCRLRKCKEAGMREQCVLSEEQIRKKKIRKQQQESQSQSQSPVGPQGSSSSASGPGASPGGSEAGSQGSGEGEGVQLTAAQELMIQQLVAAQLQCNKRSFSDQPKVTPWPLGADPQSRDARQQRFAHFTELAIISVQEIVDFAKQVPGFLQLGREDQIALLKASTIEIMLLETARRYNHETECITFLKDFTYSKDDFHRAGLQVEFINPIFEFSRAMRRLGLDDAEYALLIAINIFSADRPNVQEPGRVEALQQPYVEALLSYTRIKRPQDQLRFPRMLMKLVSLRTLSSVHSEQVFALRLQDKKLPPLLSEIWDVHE
T1 sequence (P19793 1-462 partner): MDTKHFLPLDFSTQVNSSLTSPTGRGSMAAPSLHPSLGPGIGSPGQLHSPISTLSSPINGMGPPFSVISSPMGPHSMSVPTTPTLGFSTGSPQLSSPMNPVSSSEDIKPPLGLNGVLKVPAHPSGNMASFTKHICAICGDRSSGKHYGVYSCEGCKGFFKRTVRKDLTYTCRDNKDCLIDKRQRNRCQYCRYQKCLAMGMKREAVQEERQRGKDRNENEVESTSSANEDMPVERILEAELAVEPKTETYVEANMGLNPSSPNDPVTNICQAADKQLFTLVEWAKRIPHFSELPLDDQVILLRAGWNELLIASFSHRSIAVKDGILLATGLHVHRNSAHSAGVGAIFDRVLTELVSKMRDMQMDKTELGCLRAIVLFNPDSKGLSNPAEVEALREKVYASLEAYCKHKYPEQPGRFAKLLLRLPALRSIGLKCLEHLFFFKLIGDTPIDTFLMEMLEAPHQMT
The experiment in a line: Co-transfection assay (LXRE luciferase reporter), LXRβ. The class given is cell-based. Particulars: for EC50: CV-1 cells transfected with pCMX-hLXRβ and LXREx1-Tk-Luciferase, 20 hours incubation; for Emax: LXRβ co-transfection, relative to high control 1-(2,4-difluorobenzyl)-2-oxo-6-(4-phenoxyphenyl)-4-(trifluoromethyl)-1,2-dihydropyridine-3-carbonitrile, read-out: % Efficacy. The method in brief:
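CV-1 cells transiently co-transfected with full-length human LXRβ (or LXRα), LXREx1-Tk-luciferase reporter and β-galactosidase control; compound added (10 μM final in single-point, 11-point ½-log curves, ≤0.5% DMSO) for 20 h at 37 °C. Luciferase read; EC50 from four-parameter fit, efficacy relative to reference agonist high control.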
(In general: Reporter assays use an easily measured gene product as a stand-in for the process of interest.)

Turning to `Cc1nc(C(F)(F)F)cn1-c1ccc(-c2cc(F)c(CO)c(S(C)(=O)=O)c2)cc1-n1nncc1-c1ccc(Cl)c(Cl)c1` [Example 81, {3′-[5-(3,4-dichlorophenyl)-1H-1,2,3-triazol-1-yl]-3-fluoro-5-(methylsulfonyl)-4′-[2-methyl-4-(trifluoromethyl)-1H-imidazol-1-yl]biphenyl-4-yl}methanol], the EC50 came to 0.085 µM and the Emax came out at 99%.
As for `COC(=O)c1ccc(-c2cnnn2-c2cc(-c3cccc(S(C)(=O)=O)c3)ccc2-n2cc(C(F)(F)F)nc2C)cc1` [Example 82, methyl 4-(1-{3′-(methylsulfonyl)-4-[2-methyl-4-(trifluoromethyl)-1H-imidazol-1-yl]biphenyl-3-yl}-1H-1,2,3-triazol-5-yl)benzoate], the EC50 stood at 0.26 µM and the Emax was determined as 89%.
Taken in the same sequence, the figures for `Cc1cn(-c2ccc(-c3cccc(S(C)(=O)=O)c3)cc2-n2nncc2-c2ccc(OC(F)(F)F)cc2)c(C)n1` [Example 83, 1-[4-(2,4-dimethyl-1H-imidazol-1-yl)-3′-(methylsulfonyl)biphenyl-3-yl]-5-{4-[(trifluoromethyl)oxy]phenyl}-1H-1,2,3-triazole] were 1.16 µM and 69%.
For the compound `Cc1cn(-c2ccc(-c3cc(F)c(CO)c(S(C)(=O)=O)c3)cc2-n2nncc2-c2ccc(OC(F)(F)F)cc2)c(C)n1` [Example 84, [4′-(2,4-dimethyl-1H-imidazol-1-yl)-3-fluoro-5-(methylsulfonyl)-3′-(5-{4-[(trifluoromethyl)oxy]phenyl)-1H-1,2,3-triazol-1-yl)biphenyl-4-yl]methanol], the half-maximal effective concentration (EC50) was determined as 0.852 µM and the Emax amounted to 96%.
In the case of `CCOCc1ccc(-c2ccc(-n3cc(C(F)(F)F)nc3C)c(-n3nncc3-c3ccc(OC(F)(F)F)cc3)c2)cc1S(C)(=O)=O` [Example 85, 1-{4′-[(ethyloxy)methyl]-3′-(methylsulfonyl)-4-[2-methyl-4-(trifluoromethyl)-1H-imidazol-1-yl]biphenyl-3-yl}-5-{4-[(trifluoromethyl)oxy]phenyl}-1H-1,2,3-triazole], a half-maximal response (EC50) required 0.118 µM and the Emax was found to be 123%.
For `Cc1nc(C(F)(F)F)cn1-c1ccc(-c2cccc(S(C)(=O)=O)c2)cc1-n1nncc1-c1ccc2occc2c1` [Example 86, 5-(1-benzofuran-5-yl)-1-{3′-(methylsulfonyl)-4-[2-methyl-4-(trifluoromethyl)-1H-imidazol-1-yl]biphenyl-3-yl}-1H-1,2,3-triazole], in that order: 0.583 µM and 77%.
For `Cc1nc(C(F)(F)F)cn1-c1ccc(-c2ccc(CNS(C)(=O)=O)c(S(C)(=O)=O)c2)cc1-n1nncc1-c1ccc(OC(F)(F)F)cc1` [Example 87, N-{[3-(methylsulfonyl)-4′-[2-methyl-4-(trifluoromethyl)-1H-imidazol-1-yl]-3′-(5-{4-[(trifluoromethyl)oxy]phenyl}-1H-1,2,3-triazol-1-yl)biphenyl-4-yl]methyl}methanesulfonamide], in that order: 0.662 µM and 89%.
Take `COCc1c(F)cc(-c2ccc(-n3cc(C(F)(F)F)nc3C)c(-n3nncc3-c3ccc(OC(F)(F)F)cc3)c2)cc1S(C)(=O)=O` [Example 88, 1-{3′-fluoro-4′-[(methyloxy)methyl]-5′-(methylsulfonyl)-4-[2-methyl-4-(trifluoromethyl)-1H-imidazol-1-yl]biphenyl-3-yl}-5-{4-[(trifluoromethyl)oxy]phenyl}-1H-1,2,3-triazole]: the 50% effective concentration (EC50) was 0.306 µM and the Emax came out at 111%.
Taken in the same sequence, the figures for `COCc1ccc(-c2ccc(-n3cc(C(F)(F)F)nc3C)c(-n3nncc3-c3ccc(OC(F)(F)F)cc3)c2)cc1S(C)(=O)=O` [Example 89, 1-{4′-[(methyloxy)methyl]-3′-(methylsulfonyl)-4-[2-methyl-4-(trifluoromethyl)-1H-imidazol-1-yl]biphenyl-3-yl}-5-{4-[(trifluoromethyl)oxy]phenyl}-1H-1,2,3-triazole] were 0.316 µM and 83%.
Regarding `Cc1nc(C(F)(F)F)cn1-c1ccc(-c2ccc(CO)c(S(C)(=O)=O)c2)cc1-n1nncc1-c1ccc(OC(F)(F)F)cc1` [Example 90, [3-(methylsulfonyl)-4′-[2-methyl-4-(trifluoromethyl)-1H-imidazol-1-yl]-3′-(5-{4-[(trifluoromethyl)oxy]phenyl}-1H-1,2,3-triazol-1-yl)biphenyl-4-yl]methanol], a half-maximal effect (EC50) was put at 0.176 µM and the Emax is 105%.
Taken in the same sequence, the figures for `Cc1nc(C(F)(F)F)cn1-c1ccc(-c2cc(F)cc(S(C)(=O)=O)c2)cc1-n1nncc1-c1ccc(OC(F)(F)F)cc1` [Example 91, 1-{3′-fluoro-5′-(methylsulfonyl)-4-[2-methyl-4-(trifluoromethyl)-1H-imidazol-1-yl]biphenyl-3-yl}-5-{4-[(trifluoromethyl)oxy]phenyl}-1H-1,2,3-triazole] were 0.484 µM and 109%.
For `CCS(=O)(=O)c1cc(-c2ccc(-n3cc(C(F)(F)F)nc3C)c(-n3nncc3-c3ccc(OC(F)(F)F)cc3)c2)cc(F)c1CO` [Example 92, [3-(ethylsulfonyl)-5-fluoro-4′-[2-methyl-4-(trifluoromethyl)-1H-imidazol-1-yl]-3′-(5-{4-[(trifluoromethyl)oxy]phenyl}-1H-1,2,3-triazol-1-yl)biphenyl-4-yl]methanol], in that order: 0.502 µM and 93%.
Taken in the same sequence, the figures for `COc1ccc(-c2cnnn2-c2cc(-c3cccc(S(C)(=O)=O)c3)ccc2-n2cc(C(F)(F)F)nc2C)c(OC)c1` [Example 93, 5-[2,4-bis(methyloxy)phenyl]-1-{3′-(methylsulfonyl)-4-[2-methyl-4-(trifluoromethyl)-1H-imidazol-1-yl]biphenyl-3-yl}-1H-1,2,3-triazole] were 2.15 µM and 40%.
As for `COc1ccc(-c2ccc(-n3cc(C(F)(F)F)nc3C)c(-n3nncc3-c3ccc(OC(F)(F)F)cc3)c2)cc1S(C)(=O)=O` [Example 94, 1-{4′-(methyloxy)-3′-(methylsulfonyl)-4-[2-methyl-4-(trifluoromethyl)-1H-imidazol-1-yl]biphenyl-3-yl}-5-{4-[(trifluoromethyl)oxy]phenyl}-1H-1,2,3-triazole], the midpoint of the response, the EC50, lay at 2.34 µM and the Emax was found to be 71%.
For `Cc1nc(C(F)(F)F)cn1-c1ccc(-c2cccc(C(C)(C)C(=O)O)c2)cc1-n1nncc1-c1ccc(OC(F)(F)F)cc1` [Example 95, 2-methyl-2-{4′-[2-methyl-4-(trifluoromethyl)-1H-imidazol-1-yl]-3′-(5-{4-[(trifluoromethyl)oxy]phenyl}-1H-1,2,3-triazol-1-yl)biphenyl-3-yl}propanoic acid], the 50% effective concentration (EC50) is 2.85 µM and the Emax came to 139%.
Take `Cc1nc(C(F)(F)F)cn1-c1ccc(-c2cccc(S(=O)(=O)C(C)C)c2)cc1-n1nncc1-c1ccc(OC(F)(F)F)cc1` [Example 98, 1-{3′-[(1-methylethyl)sulfonyl]-4-[2-methyl-4-(trifluoromethyl)-1H-imidazol-1-yl]biphenyl-3-yl}-5-{4-[(trifluoromethyl)oxy]phenyl}-1H-1,2,3-triazole]: the 50% effective concentration (EC50) worked out at 1.03 µM and the Emax was 91%.
As for `Cc1nc(C(F)(F)F)cn1-c1cc(F)c(-c2cccc(S(C)(=O)=O)c2)cc1-n1nncc1-c1ccc(OC(F)(F)F)cc1` [Example 99, 1-{6-fluoro-3′-(methylsulfonyl)-4-[2-methyl-4-(trifluoromethyl)-1H-imidazol-1-yl]biphenyl-3-yl}-5-{4-[(trifluoromethyl)oxy]phenyl}-1H-1,2,3-triazole], the concentration giving a half-maximal response (EC50) was determined as 1.01 µM and the Emax is 86%.
In the case of `Cc1nc(C(F)(F)F)cn1-c1cc(F)c(-c2cccc(S(C)(=O)=O)c2)cc1-n1nncc1-c1ccc(Cl)cc1` [Example 100, 5-(4-chlorophenyl)-1-{6-fluoro-3′-(methylsulfonyl)-4-[2-methyl-4-(trifluoromethyl)-1H-imidazol-1-yl]biphenyl-3-yl}-1H-1,2,3-triazole], the 50% effective concentration (EC50) came to 1.11 µM and the Emax is 97%.

What is called EC50 is the concentration at which the effect is half-maximal. A high value points to a less potent agent.
